The results in this text go back to US12216125B2, “Method and kit for isotope-labelling of a glutathione-containing biological sample for mass spectrometry” (TECHNISCHE UNIVERSITÄT WIEN, priority 2018, dated 2025).

The assay has as its system A549 lung carcinoma cells. The experiment in a line: Oxidative stress induction in A549 cells, GSH/GSSG measured by LC-MS/MS. It is filed as cell-based, human. As to conditions: 100 μmol/L H2O2 for 15 min. The procedure:
Cell culture: A549 human lung carcinoma cells were obtained from CLS Cell Lines Service, Eppelheim, Germany, and were cultured in RPMI medium supplemented with 10% fetal bovine serum and 2 mmol/L glutamine in a 5% CO2, 37° C. incubator. For H2O2 treatment, cells were seeded in 12-well plates (300000 cells/well) and after a day in culture treated with 500 μl of control (Ca2+, Mg2+-PBS) or 100 μmol/L H2O2 in Ca2+, Mg2+-PBS for 15 min followed by two PBS washing steps and the NEM (2.5 mmol/L) incubation step. The detailed stabilisation workflow is illustrated in FIG. 1 and example 2.
Method overview: The method was tested and fully optimized for three different sample types: cells, blood and tissue. In clinical measurements available sample amount is often a limiting factor. The high sensitivity of the presented method enables analysis of scarce samples as minimal sample amounts are required. Typically, 5 μL of blood, 3-5 mg of tissue sample or 300.000 cells were used as starting material. […] All three analytes GSH-NEM, GSH-d5-NEM and ^13C, ^15N-GSH-d5-NEM (IS) were then simultaneously measured by LC-MS/MS using an MRM-based approach (FIG. 1, step 4), see also example 4.
Chromatography was carried out on a Dionex UltiMate 3000 system equipped with a Zorbax SB-C18 column (50 mm×4.6 mm, 1.8 μm, Agilent, USA). […] The sum of areas under both peaks was used for integration and quantification. […]

As to `OO` [H2O2], the GSH/GSSG ratio entry (GSSG measured as GSH-d5-NEM) was “drastically reduced”. Moreover, the “intracellular GSH values” (vs control PBS) is recorded as “depleted”.
